Source: ChEMBL document CHEMBL2413072, “Synthesis and in vitro anticancer studies of novel C-2 arylidene congeners of lantadenes” (2013)
The source made the active and inactive calls. The rule behind the calls is not given here.

Legend:
Assay type in all cases: functional
KM12 = assay: Growth inhibition of human KM12 cells assessed as cell growth at 10 uM by sulforhodamine B assay; conditions: read-out: Activity
M14 = assay: Growth inhibition of human M14 cells assessed as cell growth at 10 uM by sulforhodamine B assay; conditions: read-out: Activity
[1] = Growth inhibition of human HCC2998 cells assessed as cell growth at 10 uM by sulforhodamine B assay; conditions: HCC 2998, read-out: Activity
MDA-MB-435 = assay: Growth inhibition of human MDA-MB-435 cells assessed as growth inhibition at 10 uM by sulforhodamine B assay; conditions: read-out: GI
MDA-MB-468 [2] = assay: Growth inhibition of human MDA-MB-468 cells assessed as growth inhibition at 10 uM by sulforhodamine B assay; conditions: read-out: GI
OVCAR-8 [3] = assay: Growth inhibition of human OVCAR8 cells assessed as growth inhibition at 10 uM by sulforhodamine B assay; conditions: read-out: GI
SF-295 = assay: Growth inhibition of human SF295 cells assessed as growth inhibition at 10 uM by sulforhodamine B assay
UACC-257 [4] = assay: Growth inhibition of human UACC257 cells assessed as growth inhibition at 10 uM by sulforhodamine B assay; conditions: read-out: GI
HT-29 [5] = assay: Growth inhibition of human HT-29 cells assessed as growth inhibition at 10 uM by sulforhodamine B assay; conditions: read-out: GI
CCRF-CEM = assay: Growth inhibition of human CCRF-CEM cells assessed as growth inhibition at 10 uM by sulforhodamine B assay; conditions: read-out: GI
RPMI-8226 = assay: Growth inhibition of human RPMI8226 cells assessed as growth inhibition at 10 uM by sulforhodamine B assay; conditions: read-out: GI
[6] = Growth inhibition of human NCI-ADR-RES cells assessed as cell growth at 10 uM by sulforhodamine B assay; conditions: read-out: Activity
CAKI-1 [7] = assay: Growth inhibition of human CAKI-1 cells assessed as growth inhibition at 10 uM by sulforhodamine B assay; conditions: read-out: GI
LOX IMVI [8] = assay: Growth inhibition of human LOXIMVI cells assessed as cell growth at 10 uM by sulforhodamine B assay; conditions: read-out: Activity
OVCAR-5 = assay: Growth inhibition of human OVCAR5 cells assessed as growth inhibition at 10 uM by sulforhodamine B assay; conditions: read-out: GI
A498 = assay: Growth inhibition of human A498 cells assessed as cell growth at 10 uM by sulforhodamine B assay; conditions: read-out: Activity
SK-MEL-5 = assay: Growth inhibition of human SK-MEL-5 cells assessed as growth inhibition at 10 uM by sulforhodamine B assay; conditions: read-out: GI
UO-31 = assay: Growth inhibition of human UO31 cells assessed as cell growth at 10 uM by sulforhodamine B assay; conditions: read-out: Activity
[9] = Growth inhibition of human HCC2998 cells assessed as growth inhibition at 10 uM by sulforhodamine B assay; conditions: HCC 2998, read-out: GI
[10] = Growth inhibition of human Hs 578T cells assessed as cell growth at 10 uM by sulforhodamine B assay; conditions: read-out: Activity
[11] = Growth inhibition of human EKVX cells assessed as cell growth at 10 uM by sulforhodamine B assay; conditions: read-out: Activity
SF-539 [12] = assay: Growth inhibition of human SF539 cells assessed as growth inhibition at 10 uM by sulforhodamine B assay; conditions: read-out: GI
SF-539 [13] = assay: Growth inhibition of human SF539 cells assessed as cell growth at 10 uM by sulforhodamine B assay; conditions: read-out: Activity
SK-OV-3 [14] = assay: Growth inhibition of human SKOV3 cells assessed as cell growth at 10 uM by sulforhodamine B assay; conditions: read-out: Activity
SK-OV-3 [15] = assay: Growth inhibition of human SKOV3 cells assessed as growth inhibition at 10 uM by sulforhodamine B assay; conditions: read-out: GI
MCF7 = assay: Growth inhibition of human MCF7 cells assessed as growth inhibition at 10 uM by sulforhodamine B assay; conditions: read-out: GI
CAKI-1 [16] = assay: Growth inhibition of human CAKI-1 cells assessed as cell growth at 10 uM by sulforhodamine B assay; conditions: read-out: Activity
T47D = assay: Growth inhibition of human T47D cells assessed as growth inhibition at 10 uM by sulforhodamine B assay; conditions: read-out: GI
MOLT-4 = assay: Growth inhibition of human MOLT4 cells assessed as growth inhibition at 10 uM by sulforhodamine B assay; conditions: read-out: GI
HT-29 [17] = assay: Growth inhibition of human HT-29 cells assessed as cell growth at 10 uM by sulforhodamine B assay; conditions: read-out: Activity
UACC-257 [18] = assay: Growth inhibition of human UACC257 cells assessed as cell growth at 10 uM by sulforhodamine B assay; conditions: read-out: Activity
NCI-H226 = assay: Growth inhibition of human NCI-H226 cells assessed as growth inhibition at 10 uM by sulforhodamine B assay; conditions: read-out: GI
SF-268 = assay: Growth inhibition of human SF268 cells assessed as cell growth at 10 uM by sulforhodamine B assay; conditions: read-out: Activity
PC-3 = assay: Growth inhibition of human PC3 cells assessed as growth inhibition at 10 uM by sulforhodamine B assay; conditions: read-out: GI
SNB-75 = assay: Growth inhibition of human SNB75 cells assessed as growth inhibition at 10 uM by sulforhodamine B assay; conditions: read-out: GI
OVCAR-3 [19] = assay: Growth inhibition of human OVCAR3 cells assessed as growth inhibition at 10 uM by sulforhodamine B assay; conditions: read-out: GI
HCT-15 = assay: Growth inhibition of human HCT15 cells assessed as cell growth at 10 uM by sulforhodamine B assay; conditions: read-out: Activity
MDA-MB-231 = assay: Growth inhibition of human MDA-MB-231 cells assessed as growth inhibition at 10 uM by sulforhodamine B assay; conditions: read-out: GI
U-251 = assay: Growth inhibition of human U251 cells assessed as cell growth at 10 uM by sulforhodamine B assay; conditions: read-out: Activity
Malme-3M = assay: Growth inhibition of human MALME-3M cells assessed as cell growth at 10 uM by sulforhodamine B assay; conditions: read-out: Activity
MDA-MB-468 [20] = assay: Growth inhibition of human MDA-MB-468 cells assessed as cell growth at 10 uM by sulforhodamine B assay; conditions: read-out: Activity
HOP-62 = assay: Growth inhibition of human HOP62 cells assessed as growth inhibition at 10 uM by sulforhodamine B assay; conditions: read-out: GI
OVCAR-3 [21] = assay: Growth inhibition of human OVCAR3 cells assessed as cell growth at 10 uM by sulforhodamine B assay; conditions: read-out: Activity
ACHN = assay: Growth inhibition of human ACHN cells assessed as cell growth at 10 uM by sulforhodamine B assay; conditions: read-out: Activity
LOX IMVI [22] = assay: Growth inhibition of human LOXIMVI cells assessed as growth inhibition at 10 uM by sulforhodamine B assay; conditions: read-out: GI
OVCAR-4 = assay: Growth inhibition of human OVCAR4 cells assessed as growth inhibition at 10 uM by sulforhodamine B assay; conditions: read-out: GI
DU-145 = assay: Growth inhibition of human DU145 cells assessed as growth inhibition at 10 uM by sulforhodamine B assay; conditions: read-out: GI
SK-MEL-2 = assay: Growth inhibition of human SK-MEL-2 cells assessed as growth inhibition at 10 uM by sulforhodamine B assay; conditions: read-out: GI
OVCAR-8 [23] = assay: Growth inhibition of human OVCAR8 cells assessed as cell growth at 10 uM by sulforhodamine B assay; conditions: read-out: Activity

C/C=C(/C)C(=O)O[C@@H]1CC(C)(C)C[C@H]2C3=CC[C@@H]4[C@@]5(C)CC[C@H](O)C(C)(C)[C@@H]5CC[C@@]4(C)[C@]3(C)CC[C@@]12C(=O)O [Reduced Lantadene A]
growth at 10 µM (KM12): 21.7% | growth at 10 µM (M14): 28.7% | growth at 10 µM [1]: 26.4% | inhibition of growth at 10 µM (MDA-MB-435): 35.1% | inhibition of growth at 10 µM (MDA-MB-468 [2]): 33.9% | inhibition of growth at 10 µM (OVCAR-8 [3]): 42.3% | growth inhibition (GI) (SF-295): Active | inhibition of growth at 10 µM (UACC-257 [4]): 39.4% | inhibition of growth at 10 µM (HT-29 [5]): 44.2% | inhibition of growth at 10 µM (CCRF-CEM): 54.2% | inhibition of growth at 10 µM (RPMI-8226): 78.9% | growth at 10 µM [6]: 69.8% | inhibition of growth at 10 µM (CAKI-1 [7]): 70.5% | growth at 10 µM (LOX IMVI [8]): 42.7% | inhibition of growth at 10 µM (OVCAR-5): 36% | growth at 10 µM (A498): -31.8% | inhibition of growth at 10 µM (SK-MEL-5): 46.8% | growth at 10 µM (UO-31): -26% | inhibition of growth at 10 µM [9]: 73.6% | growth at 10 µM [10]: -17.2% | growth at 10 µM [11]: 36.5% | inhibition of growth at 10 µM (SF-539 [12]): 57% | growth at 10 µM (SF-539 [13]): 43% | growth at 10 µM (SK-OV-3 [14]): 41.8% | inhibition of growth at 10 µM (SK-OV-3 [15]): 58.2% | inhibition of growth at 10 µM (MCF7): 39% | growth at 10 µM (CAKI-1 [16]): 29.5% | inhibition of growth at 10 µM (T47D): 24.3% | inhibition of growth at 10 µM (MOLT-4): 58.6% | growth at 10 µM (HT-29 [17]): 55.8% | growth at 10 µM (UACC-257 [18]): 60.6% | inhibition of growth at 10 µM (NCI-H226): 57.9% | growth at 10 µM (SF-268): 25.9% | inhibition of growth at 10 µM (PC-3): 66.7% | inhibition of growth at 10 µM (SNB-75): 88% | inhibition of growth at 10 µM (OVCAR-3 [19]): 68% | growth at 10 µM (HCT-15): 21.2% | inhibition of growth at 10 µM (MDA-MB-231): 77.8% | growth at 10 µM (U-251): 38.2% | growth at 10 µM (Malme-3M): 35.2% | growth at 10 µM (MDA-MB-468 [20]): 66.1% | inhibition of growth at 10 µM (HOP-62): 75.7% | growth at 10 µM (OVCAR-3 [21]): 32% | growth at 10 µM (ACHN): 8.12% | inhibition of growth at 10 µM (LOX IMVI [22]): 57.3% | inhibition of growth at 10 µM (OVCAR-4): 36.8% | inhibition of growth at 10 µM (DU-145): 25.1% | inhibition of growth at 10 µM (SK-MEL-2): 45.9% | growth at 10 µM (OVCAR-8 [23]): 57.7%

CC(C)=CC(=O)O[C@@H]1CC(C)(C)C[C@H]2C3=CC[C@@H]4[C@@]5(C)CC[C@H](O)C(C)(C)[C@@H]5CC[C@@]4(C)[C@]3(C)CC[C@@]12C(=O)O [Reduced Lantadene B]
growth at 10 µM (KM12): 34.3% | growth at 10 µM (M14): 94% | growth at 10 µM [1]: 62% | inhibition of growth at 10 µM (MDA-MB-435): < 10% | inhibition of growth at 10 µM (MDA-MB-468 [2]): < 10% | inhibition of growth at 10 µM (OVCAR-8 [3]): 40.1% | inhibition of growth at 10 µM (SF-295; read-out: GI): 55.4% | inhibition of growth at 10 µM (UACC-257 [4]): < 10% | inhibition of growth at 10 µM (HT-29 [5]): 50.7% | inhibition of growth at 10 µM (CCRF-CEM): 72.6% | inhibition of growth at 10 µM (RPMI-8226): 76.3% | growth at 10 µM [6]: 54.5% | inhibition of growth at 10 µM (CAKI-1 [7]): 64.4% | growth at 10 µM (LOX IMVI [8]): 53.2% | inhibition of growth at 10 µM (OVCAR-5): < 10% | growth at 10 µM (A498): 100% | inhibition of growth at 10 µM (SK-MEL-5): 38.5% | growth at 10 µM (UO-31): 60.9% | inhibition of growth at 10 µM [9]: 38% | growth at 10 µM [10]: 85.5% | growth at 10 µM [11]: 47.7% | inhibition of growth at 10 µM (SF-539 [12]): 45.3% | growth at 10 µM (SF-539 [13]): 54.7% | growth at 10 µM (SK-OV-3 [14]): 89.4% | inhibition of growth at 10 µM (SK-OV-3 [15]): 10.6% | inhibition of growth at 10 µM (MCF7): 37.3% | growth at 10 µM (CAKI-1 [16]): 35.6% | inhibition of growth at 10 µM (T47D): 13.3% | inhibition of growth at 10 µM (MOLT-4): 50.4% | growth at 10 µM (HT-29 [17]): 49.3% | growth at 10 µM (UACC-257 [18]): 92.7% | inhibition of growth at 10 µM (NCI-H226): 21.3% | growth at 10 µM (SF-268): 92.2% | inhibition of growth at 10 µM (PC-3): 54.6% | inhibition of growth at 10 µM (SNB-75): 26.8% | inhibition of growth at 10 µM (OVCAR-3 [19]): 26.1% | growth at 10 µM (HCT-15): 25.1% | inhibition of growth at 10 µM (MDA-MB-231): 18.7% | growth at 10 µM (U-251): 39.2% | growth at 10 µM (Malme-3M): 96.7% | growth at 10 µM (MDA-MB-468 [20]): 113% | inhibition of growth at 10 µM (HOP-62): 46.3% | growth at 10 µM (OVCAR-3 [21]): 73.9% | growth at 10 µM (ACHN): 46.3% | inhibition of growth at 10 µM (LOX IMVI [22]): 46.8% | inhibition of growth at 10 µM (OVCAR-4): 29.3% | inhibition of growth at 10 µM (DU-145): 13.4% | inhibition of growth at 10 µM (SK-MEL-2): 13.5% | growth at 10 µM (OVCAR-8 [23]): 59.9%
